{"source": "patent US20210085640A1", "about": "“ACYLATED CATECHIN POLYPHENOLS AND METHODS OF THEIR USE FOR THE TREATMENT OF CANCER” (Flagship Pioneering Innovations V, Inc., priority 2018, published 2021)", "format_in_all_cases": "cell-based", "key": {"[1]": {"system": "Daudi lymphoma cancer cells", "test": "Cancer cell survival (CellTiter-Glo), Daudi", "details": "72 h", "in_short": "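Daudi cells (4×10^3/well) were exposed for 72 h at 37 °C to nine concentrations of compound, added as 10× solutions spanning 1 μM–10 mM (fatty acids) or 100 nM–1 mM (others). CellTiter-Glo luminescence gave % survival versus untreated, medium-blank corrected; IC50 derived.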"}, "[2]": {"system": "A-431 skin cancer cells", "test": "Cancer cell survival (CellTiter-Glo), A-431", "design": "Cell survival at given concentration: unit not given here", "details": "A-431 cells, 72 h", "in_short": "(§1)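 Cells were seeded at 4×10^3 cells/well and left overnight at 37 C, 5% CO2, then exposed in triplicate to nine compound concentrations for 72 h. Dosing solutions were made at 10× final (1 μM-10 mM fatty acids, 100 nM-1 mM other compounds). CellTiter-Glo luminescence, normalised to untreated and medium-only wells, gave IC50.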"}, "[3]": {"system": "A549 lung cancer cells", "test": "Cancer cell survival (CellTiter-Glo), A549", "details": "72 h", "in_short": "as §1"}, "[4]": {"system": "HCT 116 colorectal cancer cells", "test": "Cancer cell survival (CellTiter-Glo), HCT 116", "details": "HCT 116 cells, 72 h", "in_short": "as §1"}, "[5]": {"system": "PC-3 prostate cancer cells", "test": "Cancer cell survival (CellTiter-Glo), PC-3", "details": "PC-3 cells, 72 h", "in_short": "as §1"}, "[6]": {"system": "T24 bladder cancer cells", "test": "Cancer cell survival (CellTiter-Glo), T24", "details": "72 h", "in_short": "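T24 cells seeded at 4×10^3 cells/well overnight, then exposed 72 h at 37 C, 5% CO2 to nine concentrations in triplicate. Survival measured by CellTiter-Glo luminescence relative to untreated and medium controls; IC50 derived.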"}, "[7]": {"system": "AGS stomach cancer cells", "test": "Cancer cell survival (CellTiter-Glo), AGS", "design": "Cell survival at given concentration: unit not given here", "in_short": "as §1"}, "[8]": {"system": "MCF7 breast cancer cells", "test": "Cancer cell survival (CellTiter-Glo), MCF7", "details": "72 h", "in_short": "as §1"}}, "data": [{"molecule": "CCCCC(=O)O", "note": "[valerate]", "values": [{"measurement": "Cell survival at given concentration", "setting": "[1]; 1 μM, Table 4.2", "value": 0.99}, {"measurement": "Cell survival at given concentration", "setting": "[1]; 3 μM, Table 4.2", "value": 0.98}, {"measurement": "Cell survival at given concentration", "setting": "[1]; 10 μM, Table 4.2", "value": 0.98}, {"measurement": "Cell survival at given concentration", "setting": "[1]; 32 μM, Table 4.2", "value": 1.01}, {"measurement": "Cell survival at given concentration", "setting": "[1]; 100 μM, Table 4.2", "value": 0.95}, {"measurement": "Cell survival at given concentration", "setting": "[1]; 317 μM", "value": 0.91}, {"measurement": "Cell survival at given concentration", "setting": "[1]; 1 mM", "value": 0.76}, {"measurement": "Cell survival at given concentration", "setting": "[1]; 3 mM", "value": 0.39}, {"measurement": "Cell survival at given concentration", "setting": "[1]; 10 mM", "value": 0.12}, {"measurement": "IC50", "setting": "[1]; Table 4.2", "value": 2.3, "unit": "mM"}, {"measurement": "Cell survival at given concentration", "setting": "[2]; 1 μM, Table 9.2", "value": 1.01}, {"measurement": "Cell survival at given concentration", "setting": "[2]; 3 μM, Table 9.2", "value": 1.01}, {"measurement": "Cell survival at given concentration", "setting": "[2]; 10 μM, Table 9.2", "value": 1.02}, {"measurement": "Cell survival at given concentration", "setting": "[2]; 32 μM, Table 9.2", "value": 1.02}, {"measurement": "Cell survival at given concentration", "setting": "[2]; 100 μM, Table 9.2", "value": 1.02}, {"measurement": "Cell survival at given concentration", "setting": "[2]; 317 μM", "value": 1.03}, {"measurement": "Cell survival at given concentration", "setting": "[2]; 1 mM", "value": 0.98}, {"measurement": "Cell survival at given concentration", "setting": "[2]; 3 mM", "value": 0.89}, {"measurement": "Cell survival at given concentration", "setting": "[2]; 10 mM", "value": 0.71}, {"measurement": "Cell survival at given concentration", "setting": "[3]; 1 μM, Table 7.2", "value": 0.98}, {"measurement": "Cell survival at given concentration", "setting": "[3]; 3 μM, Table 7.2", "value": 1.00}, {"measurement": "Cell survival at given concentration", "setting": "[3]; 10 μM, Table 7.2", "value": 1.01}, {"measurement": "Cell survival at given concentration", "setting": "[3]; 32 μM, Table 7.2", "value": 0.97}, {"measurement": "Cell survival at given concentration", "setting": "[3]; 100 μM, Table 7.2", "value": 1.04}, {"measurement": "Cell survival at given concentration", "setting": "[3]; 317 μM", "value": 1.02}, {"measurement": "Cell survival at given concentration", "setting": "[3]; 1 mM", "value": 0.98}, {"measurement": "Cell survival at given concentration", "setting": "[3]; 3 mM", "value": 0.87}, {"measurement": "Cell survival at given concentration", "setting": "[3]; 10 mM", "value": 0.62}, {"measurement": "IC50", "setting": "[3]; Table 7.2", "value": "> 10", "unit": "mM"}, {"measurement": "Cell survival at given concentration", "setting": "[4]; 1 μM, Table 6.2", "value": 0.99}, {"measurement": "Cell survival at given concentration", "setting": "[4]; 3 μM, Table 6.2", "value": 0.99}, {"measurement": "Cell survival at given concentration", "setting": "[4]; 10 μM, Table 6.2", "value": 1.04}, {"measurement": "Cell survival at given concentration", "setting": "[4]; 32 μM, Table 6.2", "value": 1.00}, {"measurement": "Cell survival at given concentration", "setting": "[4]; 100 μM, Table 6.2", "value": 1.01}, {"measurement": "Cell survival at given concentration", "setting": "[4]; 317 μM", "value": 0.99}, {"measurement": "Cell survival at given concentration", "setting": "[4]; 1 mM", "value": 0.90}, {"measurement": "Cell survival at given concentration", "setting": "[4]; 3 mM", "value": 0.60}, {"measurement": "Cell survival at given concentration", "setting": "[4]; 10 mM", "value": 0.17}, {"measurement": "IC50", "setting": "[4]; Table 6.2", "value": 4.07, "unit": "mM"}, {"measurement": "Cell survival at given concentration", "setting": "[5]; 1 μM, Table 8.2", "value": 1.00}, {"measurement": "Cell survival at given concentration", "setting": "[5]; 3 μM, Table 8.2", "value": 0.99}, {"measurement": "Cell survival at given concentration", "setting": "[5]; 10 μM, Table 8.2", "value": 1.02}, {"measurement": "Cell survival at given concentration", "setting": "[5]; 32 μM, Table 8.2", "value": 1.01}, {"measurement": "Cell survival at given concentration", "setting": "[5]; 100 μM, Table 8.2", "value": 1.04}, {"measurement": "Cell survival at given concentration", "setting": "[5]; 317 μM", "value": 0.97}, {"measurement": "Cell survival at given concentration", "setting": "[5]; 1 mM", "value": 0.94}, {"measurement": "Cell survival at given concentration", "setting": "[5]; 3 mM", "value": 0.84}, {"measurement": "Cell survival at given concentration", "setting": "[5]; 10 mM", "value": 0.69}, {"measurement": "IC50", "setting": "[5]; Table 8.2", "value": "> 10", "unit": "mM"}, {"measurement": "Cell survival at given concentration", "setting": "[6]; 1 μM, Table 3.2", "value": 1.00}, {"measurement": "Cell survival at given concentration", "setting": "[6]; 3 μM, Table 3.2", "value": 1.01}, {"measurement": "Cell survival at given concentration", "setting": "[6]; 10 μM, Table 3.2", "value": 1.01}, {"measurement": "Cell survival at given concentration", "setting": "[6]; 32 μM, Table 3.2", "value": 0.98}, {"measurement": "Cell survival at given concentration", "setting": "[6]; 100 μM, Table 3.2", "value": 0.98}, {"measurement": "Cell survival at given concentration", "setting": "[6]; 317 μM", "value": 0.92}, {"measurement": "Cell survival at given concentration", "setting": "[6]; 1 mM", "value": 0.89}, {"measurement": "Cell survival at given concentration", "setting": "[6]; 3 mM", "value": 0.79}, {"measurement": "Cell survival at given concentration", "setting": "[6]; 10 mM", "value": 0.60}, {"measurement": "IC50", "setting": "[6]; Table 3.2, read-out: IC50", "value": "> 10", "unit": "mM"}, {"measurement": "Cell survival at given concentration", "setting": "[7]; 1 μM, Table 10.2", "value": 1.03}, {"measurement": "Cell survival at given concentration", "setting": "[7]; 3 μM, Table 10.2", "value": 1.03}, {"measurement": "Cell survival at given concentration", "setting": "[7]; 10 μM, Table 10.2", "value": 1.04}, {"measurement": "Cell survival at given concentration", "setting": "[7]; 32 μM, Table 10.2", "value": 1.03}, {"measurement": "Cell survival at given concentration", "setting": "[7]; 100 μM, Table 10.2", "value": 1.05}, {"measurement": "Cell survival at given concentration", "setting": "[7]; 317 μM", "value": 1.06}, {"measurement": "Cell survival at given concentration", "setting": "[7]; 1 mM", "value": 1.06}, {"measurement": "Cell survival at given concentration", "setting": "[7]; 3 mM", "value": 0.97}, {"measurement": "Cell survival at given concentration", "setting": "[7]; 10 mM", "value": 0.63}, {"measurement": "Cell survival at given concentration", "setting": "[8]; 1 μM, Table 5.2", "value": 1.00}, {"measurement": "Cell survival at given concentration", "setting": "[8]; 3 μM, Table 5.2", "value": 1.02}, {"measurement": "Cell survival at given concentration", "setting": "[8]; 10 μM, Table 5.2", "value": 1.01}, {"measurement": "Cell survival at given concentration", "setting": "[8]; 32 μM, Table 5.2", "value": 0.97}, {"measurement": "Cell survival at given concentration", "setting": "[8]; 100 μM, Table 5.2", "value": 1.00}, {"measurement": "Cell survival at given concentration", "setting": "[8]; 317 μM", "value": 0.96}, {"measurement": "Cell survival at given concentration", "setting": "[8]; 1 mM", "value": 0.94}, {"measurement": "Cell survival at given concentration", "setting": "[8]; 3 mM", "value": 0.76}, {"measurement": "Cell survival at given concentration", "setting": "[8]; 10 mM", "value": 0.50}, {"measurement": "IC50", "setting": "[8]; Table 5.2", "value": "> 10", "unit": "mM"}]}]}
